Test results taken from US20230111310A1, “CARBOXYLIC ACID DERIVATIVE-SUBSTITUTED IMINO ARYL COMPOUND, PREPARATION METHOD THEREFOR, HERBICIDAL COMPOSITION AND USE THEREOF” (Qingdao Kingagroot Chemical Compound Co., Ltd., priority 2020, published 2023).

Key:
Test in all cases: Weeding effect in post-emergence stage
Format in all cases: in vivo
[1] = system: Abutilon theophrasti; conditions: for Weeding effect in post-emergence stage, Abutilon theophrasti (level): fresh weight control rate level; for Weeding effect in post-emergence stage, Abutilon theophrasti: level of fresh weight growth control rate
Method in brief: (§1)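 Compound, dissolved in acetone and diluted in water with Tween 80 plus methyl oleate EC (1.5 liter/ha), is sprayed onto 2-3 leaf potted plants. Rates span 7.5–500 g/ha. After 3 weeks of greenhouse culture, weeding effect is counted as the mean of triplicates.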

[2] = system: Alopecurus japonicus; conditions: for Weeding effect in post-emergence stage, Alopecurus japonicus (level): fresh weight control rate level; for Weeding effect in post-emergence stage, Alopecurus japonicus: level of fresh weight growth control rate
Method in brief: as §1

[3] = system: Digitaria sanguinalis; conditions: for Weeding effect in post-emergence stage, Digitaria sanguinalis (level): fresh weight control rate level; for Weeding effect in post-emergence stage, Digitaria sanguinalis: level of fresh weight growth control rate
Method in brief: as §1

[4] = system: Eleusine indica; conditions: for Weeding effect in post-emergence stage, Eleusine indica (level): fresh weight control rate level; for Weeding effect in post-emergence stage, Eleusine indica: level of fresh weight growth control rate
Method in brief: as §1

[5] = system: Setaria viridis; conditions: for Weeding effect in post-emergence stage, Setaria viridis (level): fresh weight control rate level; for Weeding effect in post-emergence stage, Setaria viridis: level of fresh weight growth control rate
Method in brief: as §1

[6] = system: Echinochloa crusgalli; conditions: for Weeding effect in post-emergence stage, Echinochloa crusgalli (level): fresh weight control rate level; for Weeding effect in post-emergence stage, Echinochloa crusgalli: level of fresh weight growth control rate
Method in brief: as §1

SMILES	Weeding effect in post-emergence stage, Abutilon theophrasti ([1]; Dose 15 g/ha)	Weeding effect in post-emergence stage, Alopecurus japonicus ([2]; Dose 15 g/ha)	Weeding effect in post-emergence stage, Digitaria sanguinalis ([3]; Dose 15 g/ha)	Weeding effect in post-emergence stage, Eleusine indica ([4]; Dose 15 g/ha)	Weeding effect in post-emergence stage, Setaria viridis ([5]; Dose 15 g/ha)	Weeding effect in post-emergence stage, Echinochloa crusgalli ([6]; Dose 15 g/ha)	also measured
COC(=O)C(C)O/N=C/c1cc(-n2c(=S)cc(C(F)(F)F)n(C)c2=S)c(F)cc1C#N (racemic) [Compound 390]							Weeding effect in post-emergence stage, Abutilon theophrasti (level) ([1]; Dose 15 g/ha): 5 (Level 5: growth control rate is above 85%); Weeding effect in post-emergence stage, Alopecurus japonicus (level) ([2]; Dose 15 g/ha): 5 (Level 5: growth control rate is above 85%); Weeding effect in post-emergence stage, Digitaria sanguinalis (level) ([3]; Dose 15 g/ha): 5 (Level 5: growth control rate is above 85%); Weeding effect in post-emergence stage, Eleusine indica (level) ([4]; Dose 15 g/ha): 5 (Level 5: growth control rate is above 85%); Weeding effect in post-emergence stage, Setaria viridis (level) ([5]; Dose 15 g/ha): 5 (Level 5: growth control rate is above 85%); Weeding effect in post-emergence stage, Echinochloa crusgalli (level) ([6]; Dose 15 g/ha): 5 (Level 5: growth control rate is above 85%)
CCCCCCCCOC(=O)C(C)O/N=C/c1cc(-n2c(=O)cc(C(F)(F)F)n(C)c2=O)c(F)cc1Cl (racemic) [Compound 206]	5 (Level 5: growth control rate is above 85%)	5 (Level 5: growth control rate is above 85%)	5 (Level 5: growth control rate is above 85%)	5 (Level 5: growth control rate is above 85%)	5 (Level 5: growth control rate is above 85%)	5 (Level 5: growth control rate is above 85%)	
COC(=O)[C@@H](C)O/N=C/c1cc(-n2c(=O)n(C)c(=S)n(C)c2=O)c(F)cc1Br [83(R)]	5 (Level 5: growth control rate is above 85%)	4 (Level 4: growth control rate is greater than or equal to 60% and less than 85%)	4 (Level 4: growth control rate is greater than or equal to 60% and less than 85%)	5 (Level 5: growth control rate is above 85%)	5 (Level 5: growth control rate is above 85%)	5 (Level 5: growth control rate is above 85%)	
CC(CC#N)OC(=O)C(C)O/N=C/c1cc(-n2c(=O)cc(C(F)(F)F)n(C)c2=O)c(F)cc1Cl (stereo not drawn) [Compound 444]							Weeding effect in post-emergence stage, Abutilon theophrasti (level) ([1]; Dose 15 g/ha): 5 (Level 5: growth control rate is above 85%); Weeding effect in post-emergence stage, Alopecurus japonicus (level) ([2]; Dose 15 g/ha): 5 (Level 5: growth control rate is above 85%); Weeding effect in post-emergence stage, Digitaria sanguinalis (level) ([3]; Dose 15 g/ha): 5 (Level 5: growth control rate is above 85%); Weeding effect in post-emergence stage, Eleusine indica (level) ([4]; Dose 15 g/ha): 5 (Level 5: growth control rate is above 85%); Weeding effect in post-emergence stage, Setaria viridis (level) ([5]; Dose 15 g/ha): 5 (Level 5: growth control rate is above 85%); Weeding effect in post-emergence stage, Echinochloa crusgalli (level) ([6]; Dose 15 g/ha): 5 (Level 5: growth control rate is above 85%)
CCCCCCC(C)OC(=O)[C@@H](C)O/N=C/c1cc(-n2c(=O)cc(C(F)(F)F)n(C)c2=O)c(F)cc1Cl (stereo partly drawn) [207(R)]	5 (Level 5: growth control rate is above 85%)	5 (Level 5: growth control rate is above 85%)	5 (Level 5: growth control rate is above 85%)	5 (Level 5: growth control rate is above 85%)	5 (Level 5: growth control rate is above 85%)	5 (Level 5: growth control rate is above 85%)	
CC(O/N=C/c1cc(-n2c(=O)cc(C(F)(F)F)n(C)c2=O)c(F)cc1Cl)C(N)=O (stereo not drawn) [Compound 499]							Weeding effect in post-emergence stage, Abutilon theophrasti (level) ([1]; Dose 15 g/ha): 5 (Level 5: growth control rate is above 85%); Weeding effect in post-emergence stage, Alopecurus japonicus (level) ([2]; Dose 15 g/ha): 5 (Level 5: growth control rate is above 85%); Weeding effect in post-emergence stage, Digitaria sanguinalis (level) ([3]; Dose 15 g/ha): 5 (Level 5: growth control rate is above 85%); Weeding effect in post-emergence stage, Eleusine indica (level) ([4]; Dose 15 g/ha): 5 (Level 5: growth control rate is above 85%); Weeding effect in post-emergence stage, Setaria viridis (level) ([5]; Dose 15 g/ha): 5 (Level 5: growth control rate is above 85%); Weeding effect in post-emergence stage, Echinochloa crusgalli (level) ([6]; Dose 15 g/ha): 5 (Level 5: growth control rate is above 85%)
CC(O/N=C/c1cc(-n2c(=O)cc(C(F)(F)F)n(C)c2=O)c(F)cc1Cl)C(=O)OC1CCCC1 (racemic) [Compound 214]	5 (Level 5: growth control rate is above 85%)	5 (Level 5: growth control rate is above 85%)	5 (Level 5: growth control rate is above 85%)	5 (Level 5: growth control rate is above 85%)	5 (Level 5: growth control rate is above 85%)	5 (Level 5: growth control rate is above 85%)	
CCCCOCCOC(=O)[C@@H](C)O/N=C/c1cc(-n2c(=O)cc(C(F)(F)F)n(C)c2=O)c(F)cc1Cl [232(R)]	5 (Level 5: growth control rate is above 85%)	5 (Level 5: growth control rate is above 85%)	5 (Level 5: growth control rate is above 85%)	5 (Level 5: growth control rate is above 85%)	5 (Level 5: growth control rate is above 85%)	5 (Level 5: growth control rate is above 85%)	
CCn1c(C(F)(F)F)cc(=O)n(-c2cc(/C=N/O[C@H](C)C(=O)OC)c(Cl)cc2F)c1=O [426(R)]							Weeding effect in post-emergence stage, Abutilon theophrasti (level) ([1]; Dose 250 g/ha): 5 (Level 5: growth control rate is above 85%); Weeding effect in post-emergence stage, Alopecurus japonicus (level) ([2]; Dose 250 g/ha): 5 (Level 5: growth control rate is above 85%); Weeding effect in post-emergence stage, Digitaria sanguinalis (level) ([3]; Dose 250 g/ha): 5 (Level 5: growth control rate is above 85%); Weeding effect in post-emergence stage, Eleusine indica (level) ([4]; Dose 250 g/ha): 5 (Level 5: growth control rate is above 85%); Weeding effect in post-emergence stage, Setaria viridis (level) ([5]; Dose 250 g/ha): 5 (Level 5: growth control rate is above 85%); Weeding effect in post-emergence stage, Echinochloa crusgalli (level) ([6]; Dose 250 g/ha): 5 (Level 5: growth control rate is above 85%)
COC/C(C)=N/OC(=O)C(C)O/N=C/c1cc(-n2c(=O)cc(C(F)(F)F)n(C)c2=O)c(F)cc1Cl (stereo not drawn) [Compound 253]	5 (Level 5: growth control rate is above 85%)	5 (Level 5: growth control rate is above 85%)	5 (Level 5: growth control rate is above 85%)	5 (Level 5: growth control rate is above 85%)	5 (Level 5: growth control rate is above 85%)	5 (Level 5: growth control rate is above 85%)	
CC(O/N=C/c1cc(-n2c(=O)cc(C(F)(F)F)n(C)c2=O)c(F)cc1Cl)C(=O)OCc1ccccc1 (stereo not drawn) [Compound 283]	5 (Level 5: growth control rate is above 85%)	5 (Level 5: growth control rate is above 85%)	5 (Level 5: growth control rate is above 85%)	5 (Level 5: growth control rate is above 85%)	5 (Level 5: growth control rate is above 85%)	5 (Level 5: growth control rate is above 85%)	
